Source: patent publication US20220348592A1, “FUSED HETEROCYCLIC DERIVATIVES” (Janssen Sciences Ireland Unlimited Company, priority 2019, published 2022)
Read-outs that look alike come from different tables or passages of the source.

How the values were obtained:
[1] = Cytotoxicity in HepG2.117 cells, ATPlite Luminescence Assay; type: cell-based, human; settings: human, incubated for 3 days, mean value, read-out: TOX-HepG2.117 CC50 (μM, mean value)
Method: Cytotoxicity of the compounds was tested using HepG2 or HepG2.117 cells, incubated for 3 days in the presence of compounds. The viability of the cells was assessed using the PERKIN ELMER ATPlite Luminescence Assay System.”

HBV = experiment: Anti-HBV activity: intracellular HBV DNA by real-time PCR in HepG2.117 cell line; type: cell-based, Hepatitis B virus; settings: Hepatitis B virus, read-out: HBV-AVE-HepG2.117 EC50 (μM, mean value)
Method: The anti HBV activity was measured using the HepG2.117 cell line, a stable, inducibly HBV producing cell line, which replicates HBV in the absence of doxicycline (Tet-off system). The HepG2 cell line is available from ATCC® under number HB-8065. Transfection of the HepG2 cell line can be as described in Sun and Nassal 2006 Journal of Hepatology 45 (2006) 636-645 “Stable HepG2- and Huh7-based human hepatoma cell lines for efficient regulated expression of infectious hepatitis B virus”.
For the antiviral assay, HBV replication was induced, followed by a treatment with serially diluted compound in 96-well plates. After 3 days of treatment, the antiviral activity was determined by quantification of intracellular HBV DNA using real-time PCR and an HBV specific primer set and probe.

[2] = 72 h, HepG2.117 cells, 3 days of treatment, intracellular HBV DNA by real-time PCR, mean value

Q: For `C[C@@H]1Cc2nn3c(c2CN1C(=O)c1ccc(Cl)c(Cl)c1)C(=O)N(Cc1ccnn1C)CC3` [Compound 18, (3R)-2-(3,4-Dichlorobenzoyl)-3-methyl-9-[(1-methyl-1H-pyrazol-5-yl)methyl]-1,2,3,4,8,9-hexahydropyrido[4′,3′:3,4]pyrazolo[1,5-a]pyrazin-10(7H)-one], which CC50 at 3 days [1] is on record?
A: The CC50 at 3 days was > 50 µM.

Q: And the EC50 (HBV; [2])?
A: Its EC50 is 0.252 µM.

Q: With `C[C@@H]1Cc2nn3c(c2CN1C(=O)c1ccc(Cl)c(Cl)c1)C(=O)N(Cc1ccn(C)n1)CC3` [Compound 19, (3R)-2-(3,4-Dichlorobenzoyl)-3-methyl-9-[(1-methyl-1H-pyrazol-3-yl)methyl]-1,2,3,4,8,9-hexahydropyrido[4′,3′:3,4]pyrazolo[1,5-a]pyrazin-10(7H)-one] as the molecule, how does the CC50 at 3 days [1] read?
A: Its CC50 at 3 days is > 50 µM.

Q: What about the EC50 (HBV; [2]) of the same molecule?
A: Its EC50 is 0.079 µM.

Q: For `C[C@@H]1Cc2nn3c(c2CN1C(=O)c1ccc(Cl)c(Cl)c1)C(=O)N(Cc1cc[nH]n1)CC3` [Compound 20, (3R)-2-(3,4-Dichlorobenzoyl)-3-methyl-9-[(1H-pyrazol-3-yl)methyl]-1,2,3,4,8,9-hexahydro-pyrido[4′,3′:3,4]pyrazolo[1,5-a]pyrazin-10(7H)-one], which CC50 at 3 days [1] is on record?
A: Its CC50 at 3 days is > 50 µM.

Q: What about the EC50 (HBV; [2]) of the same molecule?
A: Its EC50 is 0.108 µM.

Q: With `C[C@@H]1Cc2nn3c(c2CN1C(=O)c1ccc(Cl)c(Cl)c1)C(=O)N(Cc1ccon1)CC3` [Compound 21, (3R)-2-(3,4-Dichlorobenzoyl)-3-methyl-9-[(1,2-oxazol-3-yl)methyl]-1,2,3,4,8,9-hexahydro-pyrido[4′,3′:3,4]pyrazolo[1,5-a]pyrazin-10(7H)-one] as the molecule, how does the CC50 at 3 days [1] read?
A: The CC50 at 3 days was > 50 µM.

Q: And the EC50 (HBV; [2])?
A: Its EC50 is 0.268 µM.

Q: Which results are given for `C[C@@H]1Cc2nn3c(c2CN1C(=O)c1ccc(Cl)c(Cl)c1)C(=O)N(Cc1cscn1)CC3` [Compound 22, (3R)-2-(3,4-Dichlorobenzoyl)-3-methyl-9-[(1,3-thiazol-4-yl)methyl]-1,2,3,4,8,9-hexahydro-pyrido[4′,3′:3,4]pyrazolo[1,5-a]pyrazin-10(7H)-one]?
A: CC50 at 3 days [1]: > 50 µM; EC50 (HBV; [2]): 0.129 µM

Q: Which CC50 at 3 days [1] does the source give for `COc1ccc([C@@H](C)N2CCn3nc4c(c3C2=O)CN(C(=O)c2ccc(Cl)c(Cl)c2)[C@H](C)C4)cc1` [Compound 23, (3R)-2-(3,4-Dichlorobenzoyl)-9-[(1R)-1-(4-methoxyphenyl)ethyl]-3-methyl-1,2,3,4,8,9-hexahydropyrido[4′,3′:3,4]pyrazolo[1,5-a]pyrazin-10(7H)-one] here?
A: The CC50 at 3 days was > 50 µM.

Q: And the EC50 (HBV; [2])?
A: The EC50 was 0.022 µM.

Q: Which CC50 at 3 days [1] does the source give for `COc1ccc([C@H](C)N2CCn3nc4c(c3C2=O)CN(C(=O)c2ccc(Cl)c(Cl)c2)[C@H](C)C4)cc1` [Compound 24, (3R)-2-(3,4-dichlorobenzoyl)-9-[(1S)-1-(4-methoxyphenyl)ethyl]-3-methyl-1,2,3,4,8,9-hexahydropyrido[4′,3′:3,4]pyrazolo[1,5-a]pyrazin-10(7H)-one] here?
A: The CC50 at 3 days was 10.4 µM.

Q: And the EC50 (HBV; [2])?
A: Its EC50 is 0.036 µM.

Q: Which results are given for `C[C@@H]1Cc2nn3c(c2CN1C(=O)c1ccc(Cl)c(Cl)c1)C(=O)N([C@H](C)c1ccc(F)cc1)CC3` [Compound 25, (3R)-2-(3,4-Dichlorobenzoyl)-9-[(1R)-1-(4-fluorophenyl)ethyl]-3-methyl-1,2,3,4,8,9-hexahydropyrido[4′,3′:3,4]pyrazolo[1,5-a]pyrazin-10(7H)-one]?
A: CC50 at 3 days [1]: > 25 µM; EC50 (HBV; [2]): 0.016 µM

Q: Which CC50 at 3 days [1] does the source give for `C[C@@H]1Cc2nn3c(c2CN1C(=O)c1ccc(Cl)c(Cl)c1)C(=O)N([C@@H](C)c1ccc(F)cc1)CC3` [Compound 26, (3R)-2-(3,4-Dichlorobenzoyl)-9-[(1S)-1-(4-fluorophenyl)ethyl]-3-methyl-1,2,3,4,8,9-hexahydro-pyrido[4′,3′:3,4]pyrazolo[1,5-a]pyrazin-10(7H)-one] here?
A: The CC50 at 3 days was 26.2 µM.

Q: And the EC50 (HBV; [2])?
A: The EC50 was 0.028 µM.

Q: What does the source list for `C[C@@H]1Cc2nn3c(c2CN1C(=O)c1ccc(Cl)c(Cl)c1)C(=O)N([C@H](C)c1ccc(OC(F)F)cc1)CC3` [Compound 27, (3R)-2-(3,4-Dichlorobenzoyl)-9-{(1R)-1-[4-(difluoromethoxy)phenyl]ethyl}-3-methyl-1,2,3,4,8,9-hexahydropyrido[4′,3′:3,4]pyrazolo[1,5-a]pyrazin-10(7H)-one]?
A: CC50 at 3 days [1]: > 50 µM; EC50 (HBV; [2]): 0.103 µM

Q: Which CC50 at 3 days [1] does the source give for `C[C@@H]1Cc2nn3c(c2CN1C(=O)c1ccc(Cl)c(Cl)c1)C(=O)N([C@@H](C)c1ccc(OC(F)F)cc1)CC3` [Compound 28, (3R)-2-(3,4-Dichlorobenzoyl)-9-{(1S)-1-[4-(difluoromethoxy)phenyl]ethyl}-3-methyl-1,2,3,4,8,9-hexahydropyrido[4′,3′:3,4]pyrazolo[1,5-a]pyrazin-10(7H)-one] here?
A: The CC50 at 3 days was 16.7 µM.

Q: And the EC50 (HBV; [2])?
A: Its EC50 is 0.057 µM.

Q: With `C[C@@H]1Cc2nn3c(c2CN1C(=O)c1ccc(Cl)c(Cl)c1)C(=O)N([C@@H](C)c1ncn(S(=O)(=O)N(C)C)n1)CC3` [Compound 29, 3-{(1S)-1-[(3R)-2-(3,4-Dichlorobenzoyl)-3-methyl-10-oxo-1,3,4,7,8,10-hexahydropyrido-[4′,3′:3,4]pyrazolo[1,5-a]pyrazin-9(2H)-yl]ethyl}-N,N-dimethyl-1H-1,2,4-triazole-1-sulfonamide] as the molecule, how does the CC50 at 3 days [1] read?
A: The CC50 at 3 days was > 50 µM.

Q: And the EC50 (HBV; [2])?
A: The EC50 was 0.741 µM.

Q: Which CC50 at 3 days [1] does the source give for `C[C@@H]1Cc2nn3c(c2CN1C(=O)c1ccc(Cl)c(Cl)c1)C(=O)N([C@@H](C)c1nc[nH]n1)CC3` [Compound 30, (3R)-2-(3,4-Dichlorobenzoyl)-3-methyl-9-[(1S)-1-(1H-1,2,4-triazol-3-yl)ethyl]-1,2,3,4,8,9-hexa-hydropyrido[4′,3′:3,4]pyrazolo[1,5-a]pyrazin-10(7H)-one] here?
A: The CC50 at 3 days was > 50 µM.

Q: What about the EC50 (HBV; HepG2.117, 72 h) of the same molecule?
A: Its EC50 is 1.5 µM.

Q: With `CN1CCCn2nc3c(c2C1=O)CN(C(=O)c1ccc(Cl)c(Cl)c1)CC3` [Compound 34, 2-(3,4-Dichlorobenzoyl)-10-methyl-1,2,3,4,7,8,9,10-octahydro-11H-pyrido[4′,3′:3,4]pyrazolo-[1,5-a][1,4]diazepin-11-one] as the molecule, how does the CC50 at 3 days [1] read?
A: Its CC50 at 3 days is > 50 µM.

Q: And the EC50 (HBV; [2])?
A: Its EC50 is 1.38 µM.

Q: Which results are given for `COc1ccc(CN2CCCn3nc4c(c3C2=O)CN(C(=O)c2ccc(Cl)c(Cl)c2)CC4)cc1` [Compound 36, 2-(3,4-Dichlorobenzoyl)-10-[(4-methoxyphenyl)methyl]-1,2,3,4,7,8,9,10-octahydro-11H-pyrido[4′,3′:3,4]pyrazolo[1,5-a][1,4]diazepin-11-one]?
A: CC50 at 3 days [1]: 24.6 µM; EC50 (HBV; [2]): 0.077 µM

Q: For `O=C(c1ccc(Cl)c(Cl)c1)N1CCc2nn3c(c2C1)C(=O)N(Cc1ccncc1)CCC3` [Compound 37, 2-(3,4-Dichlorobenzoyl)-10-[(pyridin-4-yl)methyl]-1,2,3,4,7,8,9,10-octahydro-11H-pyrido-[4′,3′:3,4]pyrazolo[1,5-a][1,4]diazepin-11-one], which CC50 at 3 days [1] is on record?
A: Its CC50 at 3 days is > 50 µM.

Q: What about the EC50 (HBV; [2]) of the same molecule?
A: The EC50 was 0.345 µM.

Q: Which results are given for `C[C@@H]1Cc2nn3c(c2CN1C(=O)c1ccc(Cl)c(Cl)c1)C(=O)NCCC3` [Compound 38, (3R)-2-(3,4-Dichlorobenzoyl)-3-methyl-1,2,3,4,7,8,9,10-octahydro-11H-pyrido[4′,3′:3,4]-pyrazolo[1,5-a][1,4]diazepin-11-one]?
A: CC50 at 3 days [1]: > 50 µM; EC50 (HBV; [2]): 1.75 µM

Q: With `CC(C)CN1CCCn2nc3c(c2C1=O)CN(C(=O)c1ccc(Cl)c(Cl)c1)[C@H](C)C3` [Compound 39, (3R)-2-(3,4-Dichlorobenzoyl)-3-methyl-10-(2-methylpropyl)-1,2,3,4,7,8,9,10-octahydro-11H-pyrido[4′,3′:3,4]pyrazolo[1,5-a][1,4]diazepin-11-one] as the molecule, how does the CC50 at 3 days [1] read?
A: Its CC50 at 3 days is > 50 µM.

Q: And the EC50 (HBV; HepG2.117, 72 h)?
A: Its EC50 is 2.49 µM.

Q: Which CC50 at 3 days [1] does the source give for `COc1ccc(CN2CCCn3nc4c(c3C2=O)CN(C(=O)c2ccc(Cl)c(Cl)c2)[C@H](C)C4)cc1` [Compound 40, (3R)-2-(3,4-Dichlorobenzoyl)-10-[(4-methoxyphenyl)methyl]-3-methyl-1,2,3,4,7,8,9,10-octahydro-11H-pyrido[4′,3′:3,4]pyrazolo[1,5-a][1,4]diazepin-11-one] here?
A: The CC50 at 3 days was 20.9 µM.

Q: What about the EC50 (HBV; [2]) of the same molecule?
A: Its EC50 is 0.022 µM.

Q: Which results are given for `COc1ccc(CN2CC(NS(C)(=O)=O)Cn3nc4c(c3C2=O)CN(C(=O)c2ccc(Cl)c(Cl)c2)CC4)cc1` (stereo not drawn) [Compound 41, N-{2-(3,4-Dichlorobenzoyl)-10-[(4-methoxyphenyl)methyl]-11-oxo-1,3,4,7,8,9,10,11-octahydro-2H-pyrido[4′,3′:3,4]pyrazolo[1,5-a][1,4]diazepin-8-yl}methanesulfonamide]?
A: CC50 at 3 days [1]: > 50 µM; EC50 (HBV; [2]): 0.328 µM

Q: For `C=C1CN(C)C(=O)c2c3c(nn2C1)C[C@@H](C)N(C(=O)c1ccc(Cl)c(Cl)c1)C3` [Compound 42, (3R)-2-(3,4-Dichlorobenzoyl)-3,10-dimethyl-8-methylidene-1,2,3,4,7,8,9,10-octahydro-11H-pyrido[4′,3′:3,4]pyrazolo[1,5-a][1,4]diazepin-11-one], which CC50 at 3 days [1] is on record?
A: The CC50 at 3 days was 1.44 µM.

Q: What about the EC50 (HBV; [2]) of the same molecule?
A: The EC50 was 0.308 µM.

Q: With `C=C1CN(CC(F)(F)F)C(=O)c2c3c(nn2C1)CCN(C(=O)c1ccc(Cl)c(Cl)c1)C3` [Compound 43, 2-(3,4-Dichlorobenzoyl)-8-methylidene-10-(2,2,2-trifluoroethyl)-1,2,3,4,7,8,9,10-octahydro-11H-pyrido[4′,3′:3,4]pyrazolo[1,5-a][1,4]diazepin-11-one] as the molecule, how does the CC50 at 3 days [1] read?
A: The CC50 at 3 days was > 50 µM.

Q: What about the EC50 (HBV; [2]) of the same molecule?
A: The EC50 was 0.21 µM.

Q: Which CC50 at 3 days [1] does the source give for `C[C@@H]1Cc2nn3c(c2CN1C(=O)c1ccc(Cl)c(Cl)c1)C(=O)N(C)C[C@@H](F)C3` [Compound 44] here?
A: Its CC50 at 3 days is > 50 µM.

Q: And the EC50 (HBV; [2])?
A: The EC50 was 0.079 µM.

Q: What does the source list for `O=C(c1ccc(Cl)c(Cl)c1)N1CCc2nn3c(c2C1)C(=S)NCCC3` [Compound 48, (3,4-dichlorophenyl)(11-sulfanylidene-1,3,4,7,8,9,10,11-octahydro-2H-pyrido[4′,3′:3,4]pyrazolo-[1,5-a][1,4]diazepin-2-yl)methanone]?
A: CC50 at 3 days [1]: > 50 µM; EC50 (HBV; [2]): 1.23 µM
